The values below are quoted from earlier work in patent publication EP2698169A1, “A contrast agent-binding polypeptide and use thereof” (Universität Duisburg-Essen, priority 2012, dated 2014).

The conditions of the data set: literature [26]; conventional small molecular contrast agents.

Turning to `O=C([O-])CN1CCN(CC(=O)[O-])CCN(CC(=O)O)CCN(CC(=O)[O-])CC1.[Gd+3]` [DOTA-Gd^3+], the Relaxivities result was “below 10 s^-1mM^-1”.

In the case of `CNC[C@H](O)[C@@H](O)[C@H](O)[C@H](O)CO.CNC[C@H](O)[C@@H](O)[C@H](O)[C@H](O)CO.O=C([O-])CN(CCN(CC(=O)[O-])CC(=O)O)CCN(CC(=O)[O-])CC(=O)O.[Gd+3]` [DTPA-Gd^3+, gadopentetic acid], the Relaxivities entry is listed as “below 10 s^-1mM^-1”.
